This note sets out measurements from patent publication US20230219986A1, “NOVEL AMINOPYRIMIDINE EGFR INHIBITOR” (QILU PHARMACEUTICAL CO., LTD., priority 2020, published 2023).

Marks after values point to notes of the source that are not given here.

The target of data set [1] is Ba/F3 De119/T790M/C797S EGFR triple mutant cell line (Homo sapiens, UniProt P00533, T790M/C797S, cells depend on it, form not given). The data set can be described thus: Cell proliferation inhibition experiment (CellTiter-Glo), Ba/F3 De119/T790M/C797S. The class given is cell-based. The settings on record: Ba/F3 Del19/T790M/C797S EGFR triple mutant cells, 72 hours, Cell Titer-Glo; read-out: Ba/F3 (Del19/T790M/C797S) IC50. A general note: Cellular ATP, detected with luciferase, serves as a proxy for viable cell number.

Data set [2] relates to EGFR wild-type cell line A431. The data set can be described thus: Cell proliferation inhibition experiment (CellTiter-Glo), A431. The class given is cell-based. The settings on record: Homo sapiens, A-431, 72 h, A431 cells, Cell Titer-Glo, read-out: A431 EGFR WT IC50. An outline of the steps:
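A431 cells, 800 per well, were cultured 24 h and then exposed to serially diluted compound (0.1% DMSO final) for 72 h at 37° C., 5% CO2.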

The target of data set [3] is T1, wild-type EGFR (Homo sapiens, UniProt P00533).
T1 construct: purchased Signalchem
As to the kind of experiment: Enzymology experiment in vitro (HTRF/FRET kinase activity), wild-type EGFR. It counts as biochemical. The settings on record: HTRF KinEASE-TK, read-out: EGFR (WT) IC50. An outline of the steps: (§1)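 HTRF KinEASE-TK format: EGFR enzyme preincubated with compound 10 min at room temperature, then peptide substrate plus ATP added for 40 min. Detection with EDTA, XL665-streptavidin and Eu³⁺-labeled antibody for 1 h.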
For orientation: In TR-FRET formats the signal depends on donor and acceptor labels being close together.

The target in data set [4] is Ba/F3 L858R/T790M/C797S EGFR triple mutant cell line (Homo sapiens, UniProt P00533, T790M/C797S/L858R, cells depend on it). The data set can be described thus: Cell proliferation inhibition experiment (CellTiter-Glo), Ba/F3 L858R/T790M/C797S. The class given is cell-based. Conditions: 72 hours, Cell Titer-Glo, read-out: Ba/F3 (L858R/T790M/C797S) IC50.
Data set [5] deals with PC9 (De119/T790M/C797S) nude mice xenograft model. The data set can be described thus: In vivo efficacy research experiment A (compound 242). Also noted: species or system BALB/c-nu mice. Conditions: for Tumor volume (mm^3): mean ± standard error. The method, then: To evaluate the antitumor activity and toxic side effects of compound 242 orally administered for 21 days in PC9 (De119/T790M/C797S) nude mice xenograft model.
(§2) BALB/c-nu mice, female, SPF grade, purchased from Beijing Vital River Laboratory Animal Technology Co., Ltd.
(§3) PC9 (De119/T790M/C797S) cells, constructed by Qilu Pharmaceutical Co., Ltd.
(§4) PC9 (De119/T790M/C797S) cells were cultured in RPMI 1640 medium containing 10% FBS at 37° C. in a 5% carbon dioxide incubator; cells in exponential growth phase were collected and inoculated.
Under sterile conditions, PC9 (De119/T790M/C797S) cell suspension cultured in vitro was taken, the cell concentration was adjusted to 5×10^7 cells /mL after centrifugation, and subcutaneously inoculated under the right armpit of mice (0.1 mL/ mouse). The day of inoculation was set as day 0.
a, When the average tumor volume was about 180 mm^3, 24 mice with moderate tumor volume were selected and randomly divided into 3 groups according to the tumor volume: G1: solvent control group, G2: compound 242 (25 mg/kg) and G3: compound 242 (75/50 mg/kg), 8 mice/group.
(§5) b, After animals were grouped, administration was started, and the administration volume was 10 mL/kg, administered orally (po); administered by weight once a day for 21 consecutive days; tumor diameter was measured twice a week.
(§6) c, Tumor volume (TV): the tumor volume was measured twice a week to observe the volume change and growth rate of the tumor. Tumor volume V=½×a×b^2, where a and b represent the long and short diameters of the tumor, respectively. The growth inhibition effect of the compounds on tumor tissue was evaluated by tumor growth inhibition rate TGI (%). […] The data of the administration group and the negative control group were taken on the same day.
(§7) d, During the experiment, the living conditions of the mice, including appearance signs, general behavior, mental state, food intake, respiratory state, feces and urine characteristics, local injection site and other toxicity manifestations, were closely observed.
(§8) e, After the experiment reached the end point, the mice were euthanized, and the animal carcasses were frozen in a freezer and handed over to a qualified medical waste disposal unit for disposal.

Data set [6] has as its target T2, L858R/T790M/C797S triple mutant EGFR (Homo sapiens, UniProt P00533, C797S/L858R/T790M).
T2 construct: purchased Signalchem
As to the kind of experiment: Enzymology experiment in vitro (HTRF/FRET kinase activity), L858R/T790M/C797S triple mutant EGFR. The class given is biochemical. The settings on record: HTRF KinEASE-TK, read-out: EGFR (L858R/T790M/C797S) IC50. An outline of the steps: as §1

For data set [7], the system named is PC9 (De119/T790M/C797S) nude mice xenograft model. The data set can be described thus: In vivo efficacy research experiment B (compound 243). The settings on record: for Tumor volume (mean ± standard error): PC9 (De119/T790M/C797S) xenograft. Set-up: species or system BALB/c-nu mice. The procedure: To evaluate the antitumor activity and toxic side effects of compound 243 orally administered for 21 days in PC9 (De119/T790M/C797S) nude mice xenograft model.
as §2, §3, §4
Under sterile conditions, PC9 (De119/T790M/C797S) cell suspension cultured in vitro was taken, the cell concentration was adjusted to 3×10^7 cells/mL after centrifugation, and subcutaneously inoculated under the right armpit of mice (0.1 mL/ mouse). The day of inoculation was set as day 0.
a, When the average tumor volume was about 140 mm^3, 21 mice with moderate tumor volume were selected and randomly divided into […] according to the tumor volume: G1: solvent control group, G2: compound 243 (15 mg/kg) and G3: compound 243 (40 mg/kg), 7 mice/group.
as §5, §6, §7, §8

[8] abbreviates: 25 mg/kg po once a day for 21 days.
[9] abbreviates: 75 (D1-D6), 50 (D7-D21) mg/kg po once a day.
Setting [10] is: 15 mg/kg po once a day for 21 days.
[11] abbreviates: 40 mg/kg po once a day for 21 days.

T1 sequence (P00533 25-1210): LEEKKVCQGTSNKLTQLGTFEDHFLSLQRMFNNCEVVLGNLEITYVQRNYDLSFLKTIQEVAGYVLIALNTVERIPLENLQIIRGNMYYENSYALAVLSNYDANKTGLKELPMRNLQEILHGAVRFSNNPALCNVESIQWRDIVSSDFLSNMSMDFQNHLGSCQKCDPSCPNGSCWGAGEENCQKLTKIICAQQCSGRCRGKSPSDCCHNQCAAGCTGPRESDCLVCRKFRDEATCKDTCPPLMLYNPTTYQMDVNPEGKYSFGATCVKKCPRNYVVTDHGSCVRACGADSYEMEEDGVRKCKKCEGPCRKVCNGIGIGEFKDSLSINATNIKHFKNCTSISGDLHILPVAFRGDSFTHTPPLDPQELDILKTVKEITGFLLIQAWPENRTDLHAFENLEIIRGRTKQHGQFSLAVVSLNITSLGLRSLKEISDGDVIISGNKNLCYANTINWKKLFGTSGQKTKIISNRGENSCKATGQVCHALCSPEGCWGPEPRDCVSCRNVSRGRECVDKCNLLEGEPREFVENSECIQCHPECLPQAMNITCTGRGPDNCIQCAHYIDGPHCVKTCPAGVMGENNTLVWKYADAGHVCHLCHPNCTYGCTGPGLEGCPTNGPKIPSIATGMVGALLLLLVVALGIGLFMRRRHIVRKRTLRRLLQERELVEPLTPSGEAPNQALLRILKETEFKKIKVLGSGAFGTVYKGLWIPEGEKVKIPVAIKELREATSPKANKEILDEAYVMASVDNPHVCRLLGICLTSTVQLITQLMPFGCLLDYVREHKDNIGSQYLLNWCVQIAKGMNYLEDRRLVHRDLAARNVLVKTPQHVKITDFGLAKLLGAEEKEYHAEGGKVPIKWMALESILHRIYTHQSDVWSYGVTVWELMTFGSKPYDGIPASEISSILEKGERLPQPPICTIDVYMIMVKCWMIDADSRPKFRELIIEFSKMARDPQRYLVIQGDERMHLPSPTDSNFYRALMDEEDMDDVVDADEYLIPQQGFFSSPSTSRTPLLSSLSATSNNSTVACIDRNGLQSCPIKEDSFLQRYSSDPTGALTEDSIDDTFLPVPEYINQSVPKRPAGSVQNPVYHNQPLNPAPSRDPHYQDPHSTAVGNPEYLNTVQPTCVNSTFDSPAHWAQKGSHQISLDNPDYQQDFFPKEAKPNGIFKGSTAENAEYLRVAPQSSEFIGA
Ba/F3 De119/T790M/C797S EGFR triple mutant cell line, sequence (P00533 with tags, fused parts or gaps DEL746-750/T790M/C797S, form open): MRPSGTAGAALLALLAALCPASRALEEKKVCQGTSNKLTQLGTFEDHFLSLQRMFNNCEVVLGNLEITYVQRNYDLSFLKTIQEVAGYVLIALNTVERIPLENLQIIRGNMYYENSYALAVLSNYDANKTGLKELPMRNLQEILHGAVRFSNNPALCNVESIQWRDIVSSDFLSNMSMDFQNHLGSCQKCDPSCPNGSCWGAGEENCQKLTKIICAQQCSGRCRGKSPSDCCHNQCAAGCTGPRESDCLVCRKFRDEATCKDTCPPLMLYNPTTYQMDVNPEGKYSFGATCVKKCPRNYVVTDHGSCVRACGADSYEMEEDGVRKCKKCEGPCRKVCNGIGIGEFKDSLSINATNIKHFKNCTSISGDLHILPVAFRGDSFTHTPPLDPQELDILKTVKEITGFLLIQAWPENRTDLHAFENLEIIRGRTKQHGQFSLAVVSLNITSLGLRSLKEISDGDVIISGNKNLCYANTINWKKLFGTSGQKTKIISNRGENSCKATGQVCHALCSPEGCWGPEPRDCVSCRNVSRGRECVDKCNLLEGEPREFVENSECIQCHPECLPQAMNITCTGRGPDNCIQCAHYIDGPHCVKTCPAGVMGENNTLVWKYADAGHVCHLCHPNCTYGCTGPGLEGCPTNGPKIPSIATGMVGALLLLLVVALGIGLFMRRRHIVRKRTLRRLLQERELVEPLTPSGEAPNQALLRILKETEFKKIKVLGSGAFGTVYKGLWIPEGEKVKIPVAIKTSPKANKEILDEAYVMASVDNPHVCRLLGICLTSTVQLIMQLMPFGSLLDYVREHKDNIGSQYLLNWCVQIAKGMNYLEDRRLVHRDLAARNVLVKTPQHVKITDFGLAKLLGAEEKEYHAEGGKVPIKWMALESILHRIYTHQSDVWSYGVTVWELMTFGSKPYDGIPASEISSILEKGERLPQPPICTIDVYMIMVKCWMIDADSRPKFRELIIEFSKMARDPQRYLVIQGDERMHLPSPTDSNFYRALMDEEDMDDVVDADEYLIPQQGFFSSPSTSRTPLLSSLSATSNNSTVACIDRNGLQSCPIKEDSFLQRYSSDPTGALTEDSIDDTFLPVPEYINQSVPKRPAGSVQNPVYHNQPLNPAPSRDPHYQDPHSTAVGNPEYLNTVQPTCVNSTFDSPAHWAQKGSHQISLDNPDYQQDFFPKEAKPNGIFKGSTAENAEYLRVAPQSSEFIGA
Ba/F3 L858R/T790M/C797S EGFR triple mutant cell line, sequence (P00533 whole entry T790M/C797S/L858R): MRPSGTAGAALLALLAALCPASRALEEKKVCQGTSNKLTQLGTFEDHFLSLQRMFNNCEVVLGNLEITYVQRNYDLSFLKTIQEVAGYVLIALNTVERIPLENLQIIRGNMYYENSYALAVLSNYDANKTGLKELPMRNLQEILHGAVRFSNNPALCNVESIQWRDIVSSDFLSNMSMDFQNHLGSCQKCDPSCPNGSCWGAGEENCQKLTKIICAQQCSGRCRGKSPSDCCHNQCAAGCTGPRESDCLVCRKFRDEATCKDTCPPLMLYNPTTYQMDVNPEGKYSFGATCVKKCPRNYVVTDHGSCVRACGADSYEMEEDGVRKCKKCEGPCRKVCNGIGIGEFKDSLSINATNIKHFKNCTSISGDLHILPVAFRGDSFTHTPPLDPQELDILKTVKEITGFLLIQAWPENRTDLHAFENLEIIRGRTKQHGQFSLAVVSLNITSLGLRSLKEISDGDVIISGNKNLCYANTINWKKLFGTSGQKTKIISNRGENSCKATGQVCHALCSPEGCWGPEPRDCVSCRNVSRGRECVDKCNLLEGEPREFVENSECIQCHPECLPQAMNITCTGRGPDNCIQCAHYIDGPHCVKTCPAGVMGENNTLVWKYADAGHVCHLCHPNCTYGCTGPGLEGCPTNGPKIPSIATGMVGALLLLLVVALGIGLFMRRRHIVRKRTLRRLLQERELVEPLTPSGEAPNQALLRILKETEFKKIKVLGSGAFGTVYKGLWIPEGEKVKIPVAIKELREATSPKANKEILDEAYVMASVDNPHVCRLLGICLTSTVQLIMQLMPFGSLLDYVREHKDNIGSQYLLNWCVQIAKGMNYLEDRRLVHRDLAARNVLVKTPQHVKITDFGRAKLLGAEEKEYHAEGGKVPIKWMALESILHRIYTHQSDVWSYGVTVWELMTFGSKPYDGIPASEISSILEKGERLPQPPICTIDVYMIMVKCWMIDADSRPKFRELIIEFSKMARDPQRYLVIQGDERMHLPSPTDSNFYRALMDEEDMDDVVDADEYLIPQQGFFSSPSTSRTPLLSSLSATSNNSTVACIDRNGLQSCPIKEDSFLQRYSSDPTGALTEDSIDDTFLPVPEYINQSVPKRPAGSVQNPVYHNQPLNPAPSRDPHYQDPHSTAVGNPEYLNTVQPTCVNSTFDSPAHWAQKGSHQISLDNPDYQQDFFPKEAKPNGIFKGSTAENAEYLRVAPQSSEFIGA
T2 sequence (P00533 25-1210 T790M/C797S/L858R): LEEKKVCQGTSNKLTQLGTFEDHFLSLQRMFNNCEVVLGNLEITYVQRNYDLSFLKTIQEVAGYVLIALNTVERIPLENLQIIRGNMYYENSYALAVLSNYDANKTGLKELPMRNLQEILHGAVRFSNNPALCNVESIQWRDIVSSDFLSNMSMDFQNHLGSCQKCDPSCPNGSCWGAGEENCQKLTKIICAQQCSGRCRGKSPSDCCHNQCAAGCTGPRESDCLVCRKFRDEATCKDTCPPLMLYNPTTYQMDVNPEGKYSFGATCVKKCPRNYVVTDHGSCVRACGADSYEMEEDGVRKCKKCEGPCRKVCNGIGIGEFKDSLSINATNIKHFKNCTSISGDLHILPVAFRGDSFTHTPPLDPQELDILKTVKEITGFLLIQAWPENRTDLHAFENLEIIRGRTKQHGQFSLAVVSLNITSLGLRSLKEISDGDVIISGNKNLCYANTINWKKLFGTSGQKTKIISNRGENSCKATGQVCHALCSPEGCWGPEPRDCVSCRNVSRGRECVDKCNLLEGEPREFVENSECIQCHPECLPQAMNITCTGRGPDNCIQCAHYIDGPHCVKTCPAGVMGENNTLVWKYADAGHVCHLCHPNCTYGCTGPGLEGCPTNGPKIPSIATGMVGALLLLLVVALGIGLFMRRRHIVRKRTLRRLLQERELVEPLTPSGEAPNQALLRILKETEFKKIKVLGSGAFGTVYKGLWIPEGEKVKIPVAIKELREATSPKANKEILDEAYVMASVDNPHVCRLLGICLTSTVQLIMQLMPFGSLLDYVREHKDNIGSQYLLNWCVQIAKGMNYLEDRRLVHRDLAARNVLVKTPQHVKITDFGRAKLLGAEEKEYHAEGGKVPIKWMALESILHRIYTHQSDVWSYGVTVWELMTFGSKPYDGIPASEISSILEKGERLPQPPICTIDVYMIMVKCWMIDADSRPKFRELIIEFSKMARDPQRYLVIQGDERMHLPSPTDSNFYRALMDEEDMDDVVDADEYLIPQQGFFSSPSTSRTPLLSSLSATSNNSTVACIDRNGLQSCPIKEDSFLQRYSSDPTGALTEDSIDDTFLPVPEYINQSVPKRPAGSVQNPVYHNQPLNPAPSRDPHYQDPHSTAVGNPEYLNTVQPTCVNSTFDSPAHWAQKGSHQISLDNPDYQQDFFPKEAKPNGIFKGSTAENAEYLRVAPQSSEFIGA

Turning to `COc1cc(N2CCC3(CCN(CC4(F)CC4)CC3)CC2)c(-c2cnn(C)c2)cc1Nc1ncc(Br)c(Nc2ccc3nccnc3c2P(C)(C)=O)n1` [compound 242, (6-((5-Bromo-2-((4-(9-((1-fluorocyclopropyl)methyl)-3,9-diazaspiro[5.5]undecan-3yl)-2-methoxy-5-(1-methyl-1H-pyrazol-4-yl)phenyl)amino)pyrimidin-4-yl)amino)quinoxalin-5-yl)dimethylphosphine oxide], the GI50 in data set [1] is 1.36 nM; in data set [4] it was 3.07 nM. Moreover, the IC50 in data set [2] stood at 75.7 nM; in data set [3], 2.4 nM; in data set [6] it was 0.4 nM. Further, the tolerability of mice entry in data set [5] (25 mg/kg and 50 mg/kg doses) is reported as “well tolerated”. The “TGI (%)” value in data set [5] (setting [8]) came out at 102%; in data set [5] (setting [9]), 105%. In addition, the “Weight change (%)” value in data set [5] (setting [8]) is 2.4%; in data set [5] (setting [9]), −3.4%. Further, the “Tumor volume (mm^3)” value in data set [5] (setting [8]) is 139.8 ± 13.7** mm^3; in data set [5] (setting [9]), 64.0 ± 11.9** mm^3. In data set [5] (25, 75/50 mg/kg), the “tumor growth inhibition (in words)” value is given as “significantly inhibit tumor growth”.

`COc1cc(N2CCC3(CC2)CCN(C(C)(C)CF)CC3)c(-c2cnn(C)c2)cc1Nc1ncc(Br)c(Nc2ccc3nccnc3c2P(C)(C)=O)n1` [compound 243, (6-((5-Bromo-2-((4-(9-(1-fluoro-2-methylpropan-2-yl)-3,9-diazaspiro[5.5]undecan-3-yl)-2-methoxy-5-(1-methyl-1H-pyrazol-4-yl)phenyl)amino)pyrimidin-4-yl)amino)quinoxalin-5-yl)dimethylphosphine oxide]: the TGI in data set [7] (setting [10]) is 81.4%; in data set [7] (setting [11]), 110.1%. The Weight change is −0.4% in data set [7] (setting [10]) and −6.1% in data set [7] (setting [11]). Further, the “Tumor volume (mean ± standard error)” value is 318.6 ± 38.63** mm^3 in data set [7] (setting [10]) and 38.6 ± 5.19** mm^3 in data set [7] (setting [11]). In addition, the tolerability of mice result in data set [7] (15, 40 mg/kg) is reported as “well tolerated”. Moreover, the “tumor growth inhibition (in words)” value in data set [7] (15, 40 mg/kg po once a day for 21 days) is “significantly inhibit tumor growth”. Also, the GI50 in data set [1] is 1.73 nM; in data set [4], 3.95 nM. In addition, the IC50 in data set [2] was found to be 141 nM; in data set [3] it was 4.91 nM; in data set [6] it was 0.54 nM.

For `COc1cc(N2CC3CN(CCF)CC3C2)c(-c2cnn(C)c2)cc1Nc1ncc(Br)c(Nc2ccc3nccnc3c2P(C)(C)=O)n1` (centres unmarked) [compound 247, (6-((5-Bromo-2-((4-(5-(2-fluoroethyl)hexahydropyrrolo[3,4-c]pyrrol-2(1H)-yl)-2-methoxy-5-(1-methyl-1H-pyrazol-4-yl)phenyl)amino)pyrimidin-4-yl)amino)quinoxalin-5-yl)dimethylphosphine oxide], the GI50 in data set [1] amounted to 3.76 nM; in data set [4] it was 7.76 nM. For the same molecule, the IC50 in data set [2] amounted to 66.4 nM; in data set [3], 5.81 nM; in data set [6] it was 0.12 nM.

Take `COc1cc(N2CCC3(CC2)CCN(C2COC2)CC3)c(-c2cnn(C)c2)cc1Nc1ncc(Br)c(Nc2ccc3nccnc3c2P(C)(C)=O)n1` [compound 248]: the GI50 came out at 1.17 nM in data set [1] and 2.37 nM in data set [4]. Moreover, the IC50 came out at 84.7 nM in data set [2], 1.91 nM in data set [3] and 0.29 nM in data set [6].

As for `COc1nc(N2CCC3(CCN(CCF)CC3)CC2)c(-c2cnn(C)c2)cc1Nc1ncc(Br)c(Nc2ccc3nccnc3c2P(C)(C)=O)n1` [compound 249], the GI50 in data set [1] stood at 2.55 nM; in data set [4] it was 8.95 nM. In addition, the IC50 in data set [2] came to 85 nM; in data set [3], 3.31 nM; in data set [6], 0.4 nM.
